From patent publication US20060069132A1, “Azolecarboxamide herbicides” (priority 2004, published 2006)

Legend:
cocklebur = assay: Test B pre-/postemergence herbicide test; assay type: in vivo, Xanthium strumarium
Procedure, shortened: (§1)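 Plants compared with untreated controls 13–15 days post-treatment and given a visual 0–100 injury score. Applications: preemergence to seeds; postemergence at 1- to 4-leaf (2–18 cm); paddy species flooded, 2-leaf stage. Vehicle non-phytotoxic, surfactant included.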

lambsquarters = assay: Test B pre-/postemergence herbicide test; assay type: in vivo, Chenopodium album
Procedure, shortened: as §1

ducksalad = assay: Test B flooded paddy test; assay type: in vivo, Heteranthera limosa; conditions: 1000 g ai/ha, visual rating, scale 0 to 100 (0 no effect, 100 complete control), 13 to 15 days
Procedure, shortened: (§2)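 Formulated test chemicals went onto postemergence plants measuring 2 to 18 cm, at one to four leaves. For the paddy assay, species had reached two leaves. Scoring took place 13–15 days later by eye, relative to untreated plants, using 0 for no effect up to 100 for full control.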

rice = assay: Test B flooded paddy test; assay type: in vivo, Oryza sativa; conditions: 1000 g ai/ha, visual rating, scale 0 to 100 (0 no effect, 100 complete control), 13 to 15 days
Procedure, shortened: as §2

wild oat = assay: Test B postemergence herbicide test; assay type: in vivo, Avena fatua; conditions: scale 0 (no effect) to 100 (complete control)
Procedure, shortened: (§3)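 Visual ratings, 0 (no effect) to 100 (complete control), made versus controls after 13–15 d greenhouse. Paddy plants treated at 2-leaf stage; postemergence plants at 1- to 4-leaf stage, 2–18 cm tall.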

blackgrass = assay: Test B postemergence herbicide test; assay type: in vivo, Alopecurus myosuroides; conditions: scale 0 (no effect) to 100 (complete control)
Procedure, shortened: as §2

wheat = assay: Test B postemergence herbicide test; assay type: in vivo, Triticum aestivum; set-up: key to Wheat plant response rating: 0 = no effect, 100 = complete control; conditions: scale 0 (no effect) to 100 (complete control)
Procedure, shortened: as §3

barnyardgrass [1] = assay: Test B pre-/postemergence herbicide test; assay type: in vivo, Echinochloa crus-galli
Procedure, shortened: as §1

morningglory = assay: Test B pre-/postemergence herbicide test; assay type: in vivo, Ipomoea coccinea; conditions: preemergence, 125 g ai/ha; 0 to 100 scale, 0 is no effect, 100 is complete control
Procedure, shortened: as §1

Surinam grass = assay: Test B pre-/postemergence herbicide test; assay type: in vivo, Urochloa decumbens
Procedure, shortened: as §1

giant foxtail = assay: Test B pre-/postemergence herbicide test; assay type: in vivo, Setaria faberi
Procedure, shortened: as §1

corn = assay: Test B pre-/postemergence herbicide test; assay type: in vivo, Zea mays; conditions: preemergence
Procedure, shortened: as §1

pigweed = assay: Test B pre-/postemergence herbicide test; assay type: in vivo, Amaranthus retroflexus
Procedure, shortened: as §1

[2] = tested on: small flower umbrella sedge; assay: Test B flooded paddy test; assay type: in vivo, Cyperus difformis; conditions: 1000 g ai/ha, visual rating, scale 0 to 100 (0 no effect, 100 complete control), 13 to 15 days
Procedure, shortened: as §2

large crabgrass = assay: Test B pre-/postemergence herbicide test; assay type: in vivo, Digitaria sanguinalis
Procedure, shortened: as §1

barnyardgrass [3] = assay: Test B flooded paddy test; assay type: in vivo, Echinochloa crus-galli; conditions: 1000 g ai/ha, visual rating, scale 0 to 100 (0 no effect, 100 complete control), 13 to 15 days
Procedure, shortened: as §2

[4] = 500 g ai/ha, visual rating 0-100, 0 no effect, 100 complete control, preemergence
[5] = Postemergence, 500 g ai/ha, visual rating after 13 to 15 days, scale 0 (no effect) to 100 (complete control)
[6] = postemergence, 125 g ai/ha, visual rating, scale 0 (no effect) to 100 (complete control)
[7] = preemergence, 125 g ai/ha, 0 to 100 scale, 0 is no effect, 100 is complete control
[8] = Postemergence, 500 g ai/ha, visual rating after 13 to 15 days
[9] = postemergence, 125 g ai/ha, visual rating

In the case of `C=Cn1nc(C(C)(C)C)cc1C(=O)Nc1cccc(C(C)=NO)c1` [Compound 114], the “Plant response rating, Cocklebur” value (cocklebur; [4]) is reported as 10, the “Plant response rating, Cocklebur” value (cocklebur; [5]) is reported as 90 and the “Cocklebur plant response rating” value (cocklebur; [6]) is reported as 80. The “Plant response rating, Cocklebur” value (cocklebur; [7]) was 10, the “Plant response rating, Lambsquarters” value (lambsquarters; [4]) was 100 and the “Plant response rating, Lambsquarters” value (lambsquarters; [5]) was 90. For the same molecule, the “Lambsquarters plant response rating” value (lambsquarters; [6]) was 80, the “Plant response rating, Lambsquarters” value (lambsquarters; [7]) was 100 and the “Ducksalad plant response rating” value (ducksalad) was 80. The “Rice plant response rating” value (rice) was 50, the “Plant response rating, Oat, Wild” value (wild oat; [8]) was 10 and the “Oat, Wild plant response rating” value (wild oat; [9]) was 10. For the same molecule, the “Plant response rating, Blackgrass” value (blackgrass; [8]) was 30, the “Blackgrass plant response rating” value (blackgrass; [9]) was 10 and the “Plant response rating, Wheat” value (wheat; [8]) was 20. The “Wheat plant response rating” value (wheat; [9]) was 20, the “Plant response rating, Barnyardgrass” value (barnyardgrass [1]; [4]) was 80 and the “Plant response rating, Barnyardgrass” value (barnyardgrass [1]; [5]) was 30. For the same molecule, the “Barnyardgrass plant response rating” value (barnyardgrass [1]; [6]) was 20, the “Plant response rating, Barnyardgrass” value (barnyardgrass [1]; [7]) was 50 and the “Plant response rating, Morningglory” value (morningglory) was 10. The “Plant response rating, Surinam Grass” value (Surinam grass; [4]) was 30, the “Plant response rating, Surinam Grass” value (Surinam grass; [5]) was 20 and the “Surinam Grass plant response rating” value (Surinam grass; [6]) was 10. The “Plant response rating, Surinam Grass” value (Surinam grass; [7]) was 20, the “Plant response rating, Foxtail, Giant” value (giant foxtail; [4]) was 90 and the “Plant response rating, Foxtail, Giant” value (giant foxtail; [5]) was 30. The “Foxtail, Giant plant response rating” value (giant foxtail; [6]) was 30, the “Plant response rating, Foxtail, Giant” value (giant foxtail; [7]) was 50 and the “Plant response rating, Corn” value (corn; 500 g ai/ha, visual rating 0-100, 0 no effect, 100 complete control) was 10. The “Plant response rating, Corn” value (corn; 125 g ai/ha, 0 to 100 scale, 0 is no effect, 100 is complete control) was 0, the “Plant response rating, Pigweed” value (pigweed; [4]) was 100 and the “Plant response rating, Pigweed” value (pigweed; [5]) was 100. The “Pigweed plant response rating” value (pigweed; [6]) was 90, the “Plant response rating, Pigweed” value (pigweed; [7]) was 80 and the “Sedge, Umbrella plant response rating” value [2] was 90. For the same molecule, the “Plant response rating, Crabgrass, Large” value (large crabgrass; [4]) was 100, the “Plant response rating, Crabgrass, Large” value (large crabgrass; [5]) was 40 and the “Crabgrass, Large plant response rating” value (large crabgrass; [6]) was 30. The “Plant response rating, Crabgrass, Large” value (large crabgrass; [7]) was 90 and the “Barnyardgrass plant response rating” value (barnyardgrass [3]) was 70.
